± gives the standard deviation of the averaged measurements.
Experiments:
Experiment in all cases: level (log10 ratio to DMSO vehicle control); higher = higher biomarker level / cell amount than vehicle control
Conditions in all cases: in DMSO
[1] = compound: CCN(CCO)S(=O)(=O)C(F)(F)C(F)(F)C(F)(F)C(F)(F)C(F)(F)C(F)(F)C(F)(F)C(F)(F)F [N-Ethyl-N-(2-hydroxyethyl)perfluorooctanesulfonamide]
Procedure: (§1)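 BioMAP Diversity Plus panel of 12 human primary cell co-culture systems (3C, 4H, LPS, SAg, BT, BF4T, BE3C, CASM3C, HDF3CGF, KF3CT, MyoF, Mphg). Compounds were added 1 h before stimulation and left for 24 h (MyoF 48 h; BT 72 h for soluble read-outs or 6 d for IgG). Biomarkers were read by ELISA, cytotoxicity by SRB, PBMC viability and proliferation by Alamar Blue. Each well value was divided by the mean of 8 DMSO control wells on the same plate and log10 transformed; duplicate blinded samples were tested at 4 concentrations.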

[2] = compound: O=C(O)C(F)(F)C(F)(F)C(F)(F)F [Perfluorobutanoic acid]
Procedure: as §1

[3] = compound: COC(=O)CCC(F)(F)C(F)(F)C(F)(F)C(F)(F)F [Methyl 2H,2H,3H,3H-perfluoroheptanoate]
Procedure: as §1

[4] = compound: FC(F)(F)C(F)(F)C(F)(F)C(F)(F)C(F)(F)CCI [1-Iodo-1H,1H,2H,2H-perfluoroheptane]
Procedure: as §1

[5] = compound: O=C(O)C(F)(F)C(F)(F)C(F)(F)C(F)(F)C(F)(F)C(F)(F)C(F)(F)C(F)(F)C(F)(F)F [Perfluorodecanoic acid]
Procedure: as §1

[6] = compound: OCCC(F)(F)C(F)(F)C(F)(F)C(F)(F)C(F)(F)C(F)(F)F [6:2 Fluorotelomer alcohol]
Procedure: as §1

[7] = compound: FC(F)(F)C(F)(C(F)(F)F)C(F)(F)C(F)(F)CC1CO1 [3-(Perfluoro-3-methylbutyl)-1,2-propenoxide]
Procedure: as §1

[8] = compound: FC(F)(F)C(F)(F)C(F)(F)C(F)(F)C(F)(F)C(F)(F)C(F)(F)C(F)(F)CCS [2-(Perfluorooctyl)ethanthiol]
Procedure: as §1

Test System	level (log10) ([1]; 6700 nM)	level (log10) ([1]; 20000 nM)	level (log10) ([2]; 6700 nM)	level (log10) ([2]; 20000 nM)	level (log10) ([2]; 60000 nM)	level (log10) ([3]; 6700 nM)	level (log10) ([3]; 20000 nM)	level (log10) ([3]; 60000 nM)	level (log10) ([4]; 6700 nM)	level (log10) ([4]; 20000 nM)	level (log10) ([4]; 60000 nM)	level (log10) ([5]; 6700 nM)	level (log10) ([5]; 20000 nM)	level (log10) ([6]; 6700 nM)	level (log10) ([6]; 20000 nM)	level (log10) ([7]; 6700 nM)	level (log10) ([7]; 20000 nM)	level (log10) ([8]; 6700 nM)	level (log10) ([8]; 20000 nM)
HDF3CGF:MMP-1	0.043 ± 0.013	0.0065 ± 0.026	0.0135 ± 0.0064	0.0095 ± 0.0035	0.021 ± 0.027	0 ± 0.011	-0.003 ± 0.018	-0.004 ± 0.025	0.0565 ± 0.013	0.078 ± 0.0085	0.089 ± 0.037	-0.041 ± 0.0028	-0.174 ± 0.08	-0.0025 ± 0.00071	0.0015 ± 0.00071	0.0095 ± 0.012	-0.008 ± 0.024	-0.0095 ± 0.022	-0.0235 ± 0.044
lMphg:CD106/VCAM-1	-0.037 ± 0.03	-0.0435 ± 0.035	-0.0165 ± 0.025	-0.007 ± 0.034	-0.0085 ± 0.022	-0.0055 ± 0.012	0.009 ± 0.0057	0.0055 ± 0.037	0.005	-0.004 ± 0.0042	-0.017 ± 0.011	0.004 ± 0.0014	-0.0145 ± 0.053	-0.016 ± 0.0028	-0.0155 ± 0.013	0.005	-0.0115 ± 0.022	-0.0055 ± 0.0064	-0.0365 ± 0.011
lMphg:CD69	-0.0715 ± 0.012	-0.129 ± 0.0099	0.0505 ± 0.066	0.0455 ± 0.0021	0.087 ± 0.1	-0.016 ± 0.028	-0.029 ± 0.033	0.006 ± 0.017	-0.0365 ± 0.083	-0.063 ± 0.072	-0.0405 ± 0.066	-0.013 ± 0.054	-0.055 ± 0.052	-0.0205 ± 0.0078	-0.017 ± 0.0028	-0.0115 ± 0.054	-0.0375 ± 0.069	-0.0425 ± 0.039	-0.069 ± 0.045
CASM3C:PAI-I	0 ± 0.0071	0.004 ± 0.0085	-0.002 ± 0.0099	-0.003 ± 0.018	-0.0005 ± 0.011	-0.0195 ± 0.0078	-0.006 ± 0.0099	-0.0095 ± 0.016	0.003 ± 0.0042	0.001 ± 0.0014	0.007 ± 0.0042	0.001 ± 0.0014	-0.0015 ± 0.005	0.0105 ± 0.00071	0.005 ± 0.0057	-0.0025 ± 0.0021	0.0045 ± 0.011	-0.014 ± 0.017	0.0055 ± 0.026
HDF3CGF:TIMP-1	0.005 ± 0.081	-0.0605 ± 0.074	-0.0165 ± 0.00071	-0.0085 ± 0.033	0.0085 ± 0.013	-0.0015 ± 0.022	0.008 ± 0.014	0.014 ± 0.011	-0.001 ± 0.0042	0.0055 ± 0.005	-0.024 ± 0.0085	0.016 ± 0.037	-0.0995 ± 0.03	0.0005 ± 0.018	0.0095 ± 0.028	-0.012 ± 0.035	-0.035 ± 0.033	-0.017 ± 0.013	-0.035 ± 0.0042
lMphg:IL-1alpha	-0.018 ± 0.054	-0.0235 ± 0.018	0.002 ± 0.041	0.022 ± 0.079	0.0365 ± 0.076	-0.0215 ± 0.056	-0.0265 ± 0.035	0.029 ± 0.082	0.031 ± 0.021	-0.01 ± 0.018	0.0305 ± 0.016	0.0085 ± 0.0078	0.013 ± 0.02	0.0025 ± 0.022	0.019 ± 0.0085	-0.038 ± 0.042	0.034 ± 0.085	-0.033 ± 0.078	-0.0355 ± 0.07
MyoF:alpha-SM Actin	0.0845 ± 0.023	-0.235 ± 0.057	0.006 ± 0.037	0.003 ± 0.031	0.024 ± 0.058	-0.009 ± 0.024	-0.007 ± 0.02	-0.0035 ± 0.04	-0.0265 ± 0.029	-0.003 ± 0.018	-0.009 ± 0.0071	0.031 ± 0.027	-0.04 ± 0.016	-0.001 ± 0.018	0.0095 ± 0.026	-0.009 ± 0.028	-0.0295 ± 0.0064	-0.0145 ± 0.036	-0.103 ± 0.037
HDF3CGF:TIMP-2	0.136 ± 0.0057	0.108 ± 0.0071	-0.0015 ± 0.0035	-0.0055 ± 0.015	-0.0115 ± 0.036	0.0295 ± 0.019	-0.0065 ± 0.03	0.0195 ± 0.043	0.0155 ± 0.023	0.004 ± 0.033	-0.019 ± 0.035	-0.006 ± 0.028	-0.349 ± 0.17	-0.007 ± 0.025	0.004 ± 0.021	-0.043 ± 0.081	-0.0475 ± 0.1	-0.0305 ± 0.073	-0.0265 ± 0.069
HDF3CGF:CD54/ICAM-1	0.133 ± 0.019	0.089 ± 0.0042	-0.005 ± 0.016	0.0035 ± 0.00071	0.001 ± 0.0057	-0.0095 ± 0.0092	0.012 ± 0.0028	-0.0025 ± 0.028	-0.0065 ± 0.013	-0.0215 ± 0.00071	-0.0195 ± 0.0064	-0.0485 ± 0.0092	-0.071	-0.01 ± 0.0071	-0.0075 ± 0.0064	-0.013 ± 0.021	-0.014 ± 0.041	-0.012 ± 0.0057	-0.0145 ± 0.021
CASM3C:CCL2/MCP-1	0.003 ± 0.017	-0.017 ± 0.0057	-0.0125 ± 0.0078	-0.025 ± 0.027	-0.001 ± 0.041	-0.0075 ± 0.011	-0.003 ± 0.0071	0.004 ± 0.03	-0.0045 ± 0.011	-0.006 ± 0.028	-0.001 ± 0.037	0.006 ± 0.02	0 ± 0.0042	-0.0205 ± 0.00071	-0.019 ± 0.0028	-0.003 ± 0.0071	0.004 ± 0.031	0.008 ± 0.0014	0.0155 ± 0.0092
MyoF:Collagen IV	-0.0665 ± 0.013	0.078 ± 0.035	-0.032 ± 0.051	-0.0215 ± 0.04	-0.0055 ± 0.018	-0.0335 ± 0.03	-0.0285 ± 0.021	-0.0115 ± 0.029	0.03 ± 0.0071	0.0715 ± 0.0035	0.072 ± 0.028	0.334 ± 0.037	0.38 ± 0.086	-0.0005 ± 0.013	-0.002 ± 0.013	0.029 ± 0.024	0.057 ± 0.075	-0.009 ± 0.09	0.012 ± 0.05
